US10689377B2 (Mirati Therapeutics, Inc., priority 2017, dated 2020)

What was measured:
[1] = molecular target: KRas G12C (Homo sapiens, UniProt P01116, G12C); test: Cellular inhibition of KRas G12C measured by Phospho-ERK in NCI-H358 cells; type: cell-based; settings: pERK(Thr202/Tyr204) normalized with GAPDH, NCI-H358 cells, 3 hours; read-out: IC50
Outline: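 NCI-H358 cells were allowed to attach for 8-12 hours, then exposed to compounds for 3 hours at 0.5% DMSO final. After formaldehyde fixation and methanol permeabilization, phospho-ERK (Thr202/Tyr204) was detected by in-cell immunofluorescence and normalized to GAPDH; IC50 came from a 4-parameter fit of percent-of-DMSO values.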

[2] = In vitro stability in human whole blood; type: in vitro ADME; settings: male, whole blood diluted to 50% with PBS, pH 7.4, human whole blood diluted to 50% with PBS, 5 μM, 37° C., 240-minute incubation, read-out: Compound Half-life
Source text: Materials: The following reagents were used as received: acetonitrile (HPLC grade, Burdick & Jackson, Madison, Wis.), phosphate buffered saline (PBS), pH 7.4 (Sigma-Aldrich, Co., St. Louis, Mo.), water (HPLC grade, JT Baker, Phillipsburg, N.J.), DMSO (EM Science, Merck KGaA, Darmstadt, Germany) and isopropanol (IPA, reagent grade, EMD Chemicals, Gibbstown, N.J.). Propantheline and esmolol (Sigma-Aldrich) were used as the positive control compounds in the assay. Diazepam (Sigma-Aldrich) was used as an internal standard for quantitation. Human whole blood was obtained from BioIVT (Westbury, N.Y.) […]. All other reagents and solvents were of the highest analytical grade supplied by Sigma (St. Louis, Mo.) and were used as received.
Blood Incubations: The in vitro stability of representative KRas G12C inhibitor compounds of the present invention in the presence whole blood was conducted in the following manner. Esmolol or propantheline, which are known to undergo ester hydrolysis by esterases in blood and plasma, were used as the positive controls in the assays. A 10 mM stock solution of propantheline, esmolol, or a compound of the present invention in DMSO was diluted to 500 μM with DMSO. Aliquots of whole blood (600 μL), in triplicate, were placed in the appropriate wells of a polypropylene 96-deep well plate (Axygen Scientific, Union City, Calif.). The blood was diluted to 50% using PBS, pH 7.4 (600 μL). The diluted blood was pre-incubated for 15 minutes at 37° C. Each well was dosed with 12 μL of the 500 μM DMSO stock simultaneously for a final test concentration of 5 μM. The plates were mixed at 600 rpm for 10 seconds on a plate shaker (IKA MTS 2/4 Digital Microtiter Shaker, VWR). Aliquots of 100 μL from each well of whole blood were transferred to three separate 96-deep well plates labeled 0, 60, or 240 minutes. At the end of each designated time point, the red blood cells were lysed with 100 μL of water, mixed at 600 rpm for one minute, and stopped with 800 μL of acetonitrile containing IS (0.625 μM diazepam). The plates were mixed on the plate shaker at 600 rpm for one minute and spun in a centrifuge at 2095×g for 7 minutes at room temperature using an Allegra benchtop centrifuge (Beckman Coulter, Fullerton, Calif.). Supernatant (100 μL) was transferred to a shallow 96-well plate (Costar) using a liquid sample handling system (Apricot, Perkin-Elmer, Boston, Mass.). The addition of 100 μL of water was added to each sample of supernatant for a final volume of 200 μL. The plates were sealed and the contents of each well were analyzed by LC-MS/MS.
Analytical quantitation: The LC-MS/MS system was comprised of an HTS-PAL autosampler (Leap Technologies, Carrboro, N.C.), an HP1200 HPLC (Agilent, Palo Alto, Calif.), and an API4000 triple quadrupole mass spectrometer (PE Sciex, a division of Applied Biosystems, Foster City, Calif.). […] The total run time, including re-equilibration, for a single injection was 2 minutes. Mass spectrometric detection of the analytes was accomplished using the ESI ionization mode. Ion current was optimized during infusion of a stock solution of propantheline, esmolol, or the representative test compound. Analyte responses, including the IS were measured by multiple reaction monitoring (MRM) of transitions unique to each compound.
Calculations: Data were acquired and peak areas were calculated for test compounds and the internal standard using Analyst 1.6.2 software (Sciex). The mean peak area ratios were calculated by averaging the peak area ratios (n=3) of each test compound and the IS for each sample.
Peak area tables were exported to BioAssay Enterprise (CambridgeSoft, Cambridge, Mass.), where the average analyte-to-internal standard peak area ratios were used to calculate percent remaining (% REM) and half-life (t1/2). Percent remaining (f) was calculated by determining the ratio of the peak area ratio at each time point to the peak area ratio of the time-zero samples. […]

KRas G12C, sequence (P01116 1-188 isoform P01116-2 G12C): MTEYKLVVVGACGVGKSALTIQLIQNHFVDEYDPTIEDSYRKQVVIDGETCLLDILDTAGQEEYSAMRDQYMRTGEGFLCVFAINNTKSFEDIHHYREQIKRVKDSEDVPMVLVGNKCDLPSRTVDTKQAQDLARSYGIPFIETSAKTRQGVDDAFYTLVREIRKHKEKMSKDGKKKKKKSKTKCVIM

Row | Structure (SMILES) | IC50 [1] [µM] | half-life at 5 µM [2] [h]
1 | C=C(COC)C(=O)N1CCN(c2nc(OC[C@@H]3CCCN3C)nc3c2CCN(c2cccc4cccc(Cl)c24)C3)C[C@@H]1CC#N [Example 485, 2-[(2S)-4-[7-(8-chloro-1-naphthyl)-2-[[(2S)-1-methylpyrrolidin-2-yl]methoxy]-6,8-dihydro-5H-pyrido[3,4-d]pyrimidin-4-yl]-1-[2-(methoxymethyl)prop-2-enoyl]piperazin-2-yl]acetonitrile] | 0.0001 to 1 | > 33.3
2 | CN1CCC[C@H]1COc1nc2c(c(N3CCN(C(=O)/C=C/C(F)(F)F)[C@@H](CC#N)C3)n1)CCN(c1cccc3cccc(Cl)c13)C2 [Example 490, 2-((S)-4-(7-(8-chloronaphthalen-1-yl)-2-(((S)-1-methylpyrrolidin-2-yl)methoxy)-5,6,7,8-tetrahydropyrido[3,4-d]pyrimidin-4-yl)-1-((E)-4,4,4-trifluorobut-2-enoyl)piperazin-2-yl)acetonitrile] | 0.0001 to 1 | ≤ 3.33
3 | Cc1cccc2cccc(N3CCc4c(nc(OC[C@@H]5CCCN5C)nc4N4CCN(C(=O)/C=C/C(F)(F)F)[C@@H](CC#N)C4)C3)c12 [Example 491, 2-((S)-4-(7-(8-methylnaphthalen-1-yl)-2-(((S)-1-methylpyrrolidin-2-yl)methoxy)-5,6,7,8-tetrahydropyrido[3,4-d]pyrimidin-4-yl)-1-((E)-4,4,4-trifluorobut-2-enoyl)piperazin-2-yl)acetonitrile] | 0.0001 to 1 | ≤ 3.33
4 | Cc1cccc2cccc(N3CCc4c(nc(OC[C@@H]5CCCN5C)nc4N4CCN(C(=O)/C=C/C(F)F)[C@@H](CC#N)C4)C3)c12 [Example 495, 2-((S)-1-((E)-4,4-difluorobut-2-enoyl)-4-(7-(8-methylnaphthalen-1-yl)-2-(((S)-1-methylpyrrolidin-2-yl)methoxy)-5,6,7,8-tetrahydropyrido[3,4-d]pyrimidin-4-yl)piperazin-2-yl)acetonitrile] | 0.0001 to 1 | 3.33 to 16.7
5 | Cc1cccc2cccc(N3CCc4c(nc(OC[C@@H]5CCCN5C)nc4N4CCN(C(=O)/C=C/CCl)[C@@H](CC#N)C4)C3)c12 [Example 498, 2-((S)-1-((E)-4-chlorobut-2-enoyl)-4-(7-(8-methylnaphthalen-1-yl)-2-(((S)-1-methylpyrrolidin-2-yl)methoxy)-5,6,7,8-tetrahydropyrido[3,4-d]pyrimidin-4-yl)piperazin-2-yl)acetonitrile] | 0.0001 to 1 | > 33.3
6 | Cc1cccc2cccc(N3CCc4c(nc(OC[C@@H]5CCCN5C)nc4N4CCN(C(=O)/C=C/C#N)[C@@H](CC#N)C4)C3)c12 [Example 501, (E)-4-((S)-2-(cyanomethyl)-4-(7-(8-methylnaphthalen-1-yl)-2-(((S)-1-methylpyrrolidin-2-yl)methoxy)-5,6,7,8-tetrahydropyrido[3,4-d]pyrimidin-4-yl)piperazin-1-yl)-4-oxobut-2-enenitrile] | 0.0001 to 1 | ≤ 3.33
7 | Cc1cccc2cccc(N3CCc4c(nc(OC[C@@H]5CCCN5C)nc4N4CCN(C(=O)/C=C\C#N)[C@@H](CC#N)C4)C3)c12 [Example 502, (Z)-4-((S)-2-(cyanomethyl)-4-(7-(8-methylnaphthalen-1-yl)-2-(((S)-1-methylpyrrolidin-2-yl)methoxy)-5,6,7,8-tetrahydropyrido[3,4-d]pyrimidin-4-yl)piperazin-1-yl)-4-oxobut-2-enenitrile] | 0.0001 to 1 | 3.33 to 16.7
8 | C=C(C(=O)N1CCN(c2nc(OC[C@@H]3CCCN3C)nc3c2CCN(c2cccc4cccc(Cl)c24)C3)C[C@@H]1CC#N)C(F)(F)F [Example 504, 2-[(2S)-4-[7-(8-chloro-1-naphthyl)-2-[[(2S)-1-methylpyrrolidin-2-yl]methoxy]-6,8-dihydro-5H-pyrido[3,4-d]pyrimidin-4-yl]-1-[2-(trifluoromethyl)prop-2-enoyl]piperazin-2-yl]acetonitrile] | 0.0001 to 1 | ≤ 3.33
9 | Cc1cccc2cccc(N3CCc4c(nc(OC[C@@H]5CCCN5C)nc4N4CCN(C(=O)/C=C/CF)[C@@H](CC#N)C4)C3)c12 [Example 506, 2-((S)-1-((E)-4-fluorobut-2-enoyl)-4-(7-(8-methylnaphthalen-1-yl)-2-(((S)-1-methylpyrrolidin-2-yl)methoxy)-5,6,7,8-tetrahydropyrido[3,4-d]pyrimidin-4-yl)piperazin-2-yl)acetonitrile] | 0.0001 to 1 | 16.7 to 33.3
10 | C=C(F)C(=O)N1CCN(c2nc(OC[C@@H]3CCCN3C)nc3c2CCN(c2cccc4cccc(C)c24)C3)C[C@@H]1CC#N [Example 507] | 0.0001 to 1 | > 33.3
11 | Cc1cccc2cccc(N3CCc4c(nc(OC[C@@H]5CCCN5C)nc4N4CCN(C(=O)/C=C/Cn5cccn5)[C@@H](CC#N)C4)C3)c12 [Example 509] | 0.0001 to 1 | > 33.3
12 | Cc1cccc2cccc(N3CCc4c(nc(OC[C@@H]5CCCN5C)nc4N4CCN(C(=O)/C=C/CO)[C@@H](CC#N)C4)C3)c12 [Example 510, 2-((S)-1-((E)-4-hydroxybut-2-enoyl)-4-(7-(8-methylnaphthalen-1-yl)-2-(((S)-1-methylpyrrolidin-2-yl)methoxy)-5,6,7,8-tetrahydropyrido[3,4-d]pyrimidin-4-yl)piperazin-2-yl)acetonitrile] | 0.0001 to 1 | 16.7 to 33.3
13 | COC/C=C/C(=O)N1CCN(c2nc(OC[C@@H]3CCCN3C)nc3c2CCN(c2cccc4cccc(C)c24)C3)C[C@@H]1CC#N [Example 511, 2-((S)-1-((E)-4-methoxybut-2-enoyl)-4-(7-(8-methylnaphthalen-1-yl)-2-(((S)-1-methylpyrrolidin-2-yl)methoxy)-5,6,7,8-tetrahydropyrido[3,4-d]pyrimidin-4-yl)piperazin-2-yl)acetonitrile] | 0.0001 to 1 | > 33.3
14 | C=C(OC)C(=O)N1CCN(c2nc(OC[C@@H]3CCCN3C)nc3c2CCN(c2cccc4cccc(C)c24)C3)C[C@@H]1CC#N [Example 512, 2-[(2S)-1-(2-methoxyprop-2-enoyl)-4-[7-(8-methyl-1-naphthyl)-2-[[(2S)-1-methylpyrrolidin-2-yl]methoxy]-6,8-dihydro-5H-pyrido[3,4-d]pyrimidin-4-yl]piperazin-2-yl]acetonitrile] | > 1 | > 33.3
15 | CN1CCC[C@H]1COc1nc2c(c(N3CCN(C(=O)/C=C/CO)[C@@H](CC#N)C3)n1)CCN(c1cccc3cccc(Cl)c13)C2 [Example 513, 2-[(2S)-4-[7-(8-chloro-1-naphthyl)-2-[[(2S)-1-methylpyrrolidin-2-yl]methoxy]-6,8-dihydro-5H-pyrido[3,4-d]pyrimidin-4-yl]-1-[(E)-4-hydroxybut-2-enoyl]piperazin-2-yl]acetonitrile] | 0.0001 to 1 | 16.7 to 33.3
16 | C=C(OC)C(=O)N1CCN(c2nc(OC[C@@H]3CCCN3C)nc3c2CCN(c2cccc4cccc(Cl)c24)C3)C[C@@H]1CC#N [Example 514, 2-[(2S)-4-[7-(8-chloro-1-naphthyl)-2-[[(2S)-1-methylpyrrolidin-2-yl]methoxy]-6,8-dihydro-5H-pyrido[3,4-d]pyrimidin-4-yl]-1-(2-methoxyprop-2-enoyl)piperazin-2-yl] acetonitrile] | > 1 | > 33.3
